Assay results from ChEMBL document CHEMBL5325499, “Rational Design and Development of Selective BRD7 Bromodomain Inhibitors and Their Activity in Prostate Cancer” (J Med Chem, 2023).
pIC50, pKd, pKi: −log10 of the molar value. Active and inactive are the calls of the source. The rule behind the calls is not given here.

Assays:
[1] = target: T1, Bromodomain-containing protein 7 (Homo sapiens, UniProt Q9NPI1); assay: Binding affinity to human partial length BRD7 bromodomain (125 to 254 residues) expressed in mammalian expression system by BROMOscan KdELECT analysis
T1 sequence (Q9NPI1 whole entry): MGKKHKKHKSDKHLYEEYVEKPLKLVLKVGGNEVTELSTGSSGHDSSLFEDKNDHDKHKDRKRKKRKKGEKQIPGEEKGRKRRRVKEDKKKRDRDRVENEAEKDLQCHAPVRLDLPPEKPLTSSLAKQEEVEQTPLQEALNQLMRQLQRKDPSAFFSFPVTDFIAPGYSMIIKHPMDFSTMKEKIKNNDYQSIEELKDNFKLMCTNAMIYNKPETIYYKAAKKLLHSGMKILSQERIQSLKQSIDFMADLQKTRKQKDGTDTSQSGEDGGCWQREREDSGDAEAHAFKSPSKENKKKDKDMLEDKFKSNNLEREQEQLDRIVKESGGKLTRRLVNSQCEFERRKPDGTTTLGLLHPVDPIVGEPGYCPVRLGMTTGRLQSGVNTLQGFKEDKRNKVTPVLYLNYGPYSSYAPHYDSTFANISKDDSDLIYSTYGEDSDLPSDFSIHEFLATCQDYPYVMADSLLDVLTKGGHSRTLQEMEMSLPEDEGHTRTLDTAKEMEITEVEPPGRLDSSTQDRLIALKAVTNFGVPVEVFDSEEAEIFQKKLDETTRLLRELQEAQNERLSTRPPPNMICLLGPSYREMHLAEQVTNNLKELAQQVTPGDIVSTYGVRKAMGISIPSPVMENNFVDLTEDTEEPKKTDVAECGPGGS

[2] = target: T2, Bromodomain-containing protein 9 (Homo sapiens) (UniProt Q9H8M2); assay: Inhibition of human partial length BRD9 bromodomain (130 to 259 residues) expressed in bacterial expression system at 2 uM by BROMOscan analysis
T2 sequence (whole entry): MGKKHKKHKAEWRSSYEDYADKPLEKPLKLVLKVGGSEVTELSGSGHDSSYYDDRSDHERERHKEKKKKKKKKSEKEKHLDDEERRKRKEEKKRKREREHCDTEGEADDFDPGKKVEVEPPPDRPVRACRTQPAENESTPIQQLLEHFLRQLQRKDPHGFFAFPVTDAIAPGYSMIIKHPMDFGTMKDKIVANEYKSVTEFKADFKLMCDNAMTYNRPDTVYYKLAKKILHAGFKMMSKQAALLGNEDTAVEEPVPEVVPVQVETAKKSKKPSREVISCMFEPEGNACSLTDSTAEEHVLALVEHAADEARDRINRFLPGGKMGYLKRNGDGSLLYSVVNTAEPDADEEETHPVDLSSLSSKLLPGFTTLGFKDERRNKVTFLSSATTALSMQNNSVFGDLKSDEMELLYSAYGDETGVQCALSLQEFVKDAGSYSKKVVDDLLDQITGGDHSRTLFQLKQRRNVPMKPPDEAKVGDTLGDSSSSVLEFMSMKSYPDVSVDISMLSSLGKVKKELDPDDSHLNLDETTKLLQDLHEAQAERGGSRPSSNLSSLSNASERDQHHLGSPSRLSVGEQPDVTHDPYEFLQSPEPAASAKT

[3] = target: T1, Bromodomain-containing protein 7; assay: Displacement of FAM-labeled BI-FAMb from N-terminal His TEV-tagged human recombinant BRD7 bromodomain expressed in Escherichia coli BL21(DE3) by competitive fluorescence polarization assay
[4] = target: T3, Bromodomain-containing protein 9 (Homo sapiens, UniProt Q9H8M2); assay: Displacement of FAM-labeled BI-FAMb from N-terminal His TEV-tagged human recombinant BRD9 bromodomain expressed in Escherichia coli BL21(DE3) by competitive fluorescence polarization assay
T3 sequence (Q9H8M2 whole entry): T2 sequence (whole entry)

[5] = target: T1, Bromodomain-containing protein 7; assay: Binding affinity to N-terminal His TEV-tagged human recombinant BRD7 bromodomain expressed in Escherichia coli BL21(DE3) by microscale thermophoresis assay
[6] = target: T2, Bromodomain-containing protein 9 (Homo sapiens); assay: Binding affinity to N-terminal His TEV-tagged human recombinant BRD9 bromodomain expressed in Escherichia coli BL21(DE3) by microscale thermophoresis assay
[7] = target: T4, Bromodomain-containing protein 7 (Homo sapiens) (UniProt Q9NPI1); assay: Inhibition of human partial length BRD7 bromodomain (125 to 254 residues) expressed in mammalian expression system at 2 uM by BROMOscan analysis
T4 sequence (whole entry): T1 sequence (Q9NPI1 whole entry)

[8] = target: T3, Bromodomain-containing protein 9; assay: Binding affinity to human partial length BRD9 bromodomain (130 to 259 residues) expressed in bacterial expression system by BROMOscan KdELECT analysis
[9] = target: T1, Bromodomain-containing protein 7; assay: Displacement of NanoBRET BRD Tracer-02 from Nanoluc-fused BRD7 bromodomain (unknown origin) expressed in HEK293T cells incubated for 2 hrs by NanoBRET assay; type: cell-based; settings: for pIC50: read-out: IC50
[10] = target: T3, Bromodomain-containing protein 9; assay: Displacement of NanoBRET BRD Tracer-02 from Nanoluc-fused BRD9 bromodomain (unknown origin) expressed in HEK293T cells incubated for 2 hrs by NanoBRET assay; type: cell-based; settings: for pIC50: read-out: IC50
[11] = target: T2, Bromodomain-containing protein 9 (Homo sapiens); assay: Inhibition of BRD9 binding to chromatin in HEK293T cells at 10 uM incubated for 24 hrs by immunoblot analysis; type: cell-based
[12] = test system: PC-3; assay: Antiproliferative activity against AR-negative human PC-3 cells assessed as inhibition of cell growth at 5 uM incubated for 4 days by CellTiter-Glo luminescent assay; type: functional, cell-based; settings: time 4.0 day
[13] = Selectivity ratio of IC50 for antiproliferative activity against human AR-negative PC-3 cells to IC50 for antiproliferative activity against human AR-positive LNCaP cells; type: functional
[14] = Selectivity ratio of IC50 for antiproliferative activity against human AR-negative PC-3 cells to IC50 for antiproliferative activity against human AR-positive C-42 cells; type: functional
[15] = test system: CWR22R; assay: Antiproliferative activity against human 22Rv1 cells transfected with empty vector assessed as inhibition of cell growth at 2.5 uM measured after 4 days by CellTiter-Glo luminescent assay; type: functional; design: scale not given: the % may be the effect or the level left; settings: time 4 day
[16] = test system: CWR22R; assay: Antiproliferative activity against human 22Rv1 cells transfected with empty vector assessed as inhibition of cell growth at 5 uM measured after 4 days by CellTiter-Glo luminescent assay; type: functional; design: scale not given: the % may be the effect or the level left; settings: time 4 day
[17] = test system: CWR22R; assay: Antiproliferative activity against human 22Rv1 cells transfected with shBRD7-1 assessed as inhibition of cell growth at 2.5 uM measured after 4 days by CellTiter-Glo luminescent assay; type: functional; design: scale not given: the % may be the effect or the level left; settings: time 4 day
[18] = test system: CWR22R; assay: Antiproliferative activity against human 22Rv1 cells transfected with shBRD7-1 assessed as inhibition of cell growth at 5 uM measured after 4 days by CellTiter-Glo luminescent assay; type: functional; design: scale not given: the % may be the effect or the level left; settings: time 4 day
[19] = test system: CWR22R; assay: Antiproliferative activity against human 22Rv1 cells transfected with shBRD7-2 assessed as inhibition of cell growth at 2.5 uM measured after 4 days by CellTiter-Glo luminescent assay; type: functional; design: scale not given: the % may be the effect or the level left; settings: time 4 day
[20] = test system: CWR22R; assay: Antiproliferative activity against human 22Rv1 cells transfected with shBRD7-2 assessed as inhibition of cell growth at 5 uM measured after 4 days by CellTiter-Glo luminescent assay; type: functional; design: scale not given: the % may be the effect or the level left; settings: time 4 day
[21] = test system: LNCaP; assay: Antiproliferative activity against AR-positive human LNCaP cells assessed as inhibition of cell growth at 1 uM measured after 4 days by CellTiter-Glo luminescent assay; type: functional, cell-based; settings: time 4.0 day
[22] = test system: PC-3; assay: Antiproliferative activity against AR-negative human PC-3 cells assessed as inhibition of cell growth at 1 uM measured after 4 days by CellTiter-Glo luminescent assay; type: functional, cell-based; settings: time 4.0 day
[23] = cells; settings: Homo sapiens, HEK-293T, 2 h
Description: Displacement of NanoBRET BRD Tracer-02 from Nanoluc-fused BRPF1B bromodomain (unknown origin) expressed in HEK293T cells incubated for 2 hrs by NanoBRET assay

[24] = organism: Homo sapiens; assay: Binding affinity to His TEV-tagged human recombinant BRPF1B expressed in Escherichia coli BL21(DE3) assessed as protein stabilization by measuring increase in melting temperature at 25 uM measured for 120 mins by differential scanning fluorimetry
[25] = organism: Homo sapiens; assay: Binding affinity to His TEV-tagged human recombinant BRPF1B expressed in Escherichia coli BL21(DE3) assessed as protein stabilization by measuring increase in melting temperature at 1 uM measured for 120 mins by differential scanning fluorimetry

| SMILES | pKd [1] | inhibition [2] | pIC50 [3] | pKi [3] | pIC50 [4] | pKi [4] | pKd [5] | Activity [6] | inhibition [7] | pKd [8] | pIC50 [9] | pIC50 [10] | inhibition [11] | Activity [12] | Ratio IC50 [13] | Ratio IC50 [14] | Activity [15] [%] | Activity [16] [%] | pIC50 [23] | other results |
| --- | --- | --- | --- | --- | --- | --- | --- | --- | --- | --- | --- | --- | --- | --- | --- | --- | --- | --- | --- | --- |
| COc1ccc(-c2ccc3c(C)cc(=O)n(C)c3c2)c(OC)n1 | 6.47 | inactive | 5.27 | 5.89 | < 3.52 | < 4.70 | 5.66 | inactive | Active | 6.18 | 5.96 | 5.49 | inactive | Active | 3 | 3 | 41 | 73 | < 5.00 | Activity [17]: 13%; Activity [18]: 28%; Activity [19]: 22%; Activity [20]: 38%; Activity [21]: Active; Activity [22]: inactive |
| COc1ccc(-c2cn(C)c(=O)c3ccccc23)c(OC)n1 |  |  | 5.54 | 6.51 | 5.82 | 6.89 |  |  |  |  |  |  |  |  |  |  |  |  |  |  |
| CCn1cc(-c2cccc(C(F)(F)F)c2)c2sc(C(=N)NC3CCS(=O)(=O)CC3)cc2c1=O |  |  |  |  |  |  |  |  |  |  |  |  | Active |  |  |  |  |  |  |  |
| COc1ccc(-c2ccc3c(C)cc(=O)n(C)c3c2)c(C)n1 | 6.54 | inactive | 5.80 | 6.77 | 5.57 | 6.64 | 5.92 | inactive | Active | 6.19 | 6.07 | 5.48 | inactive | Active | 3 | 3 | 26 | 52 | 5.55 | Activity [24]: Active |
| Cc1cc(C)cc(-c2cn(C)c(=O)c3ccccc23)c1 |  |  | 5.09 | 6.07 | 5.40 | 6.47 |  |  |  |  |  |  |  |  |  |  |  |  |  |  |
| COc1ccccc1C(=O)Nc1cc2c(cc1N1CCCCC1)n(C)c(=O)n2C |  |  |  |  |  |  |  |  |  |  |  |  |  |  |  |  |  |  |  | IC50 ([9]; hek293t): Not Active; IC50 ([10]; hek293t): Not Active; Activity [25]: Active |
